Test results published in article PMC10377586 (Biomolecules, 2023).

How the values were obtained:
human PDE10A1 = target: T1, human PDE10A1 (Homo sapiens, UniProt Q9Y233); assay: PDElight HTS cAMP phosphodiesterase assay, PDE10A1; type: biochemical
T1 construct: purchased BPS Biosciences
Protocol: (§1) Further biological evaluation of the presented compound library was performed determining inhibitory potencies against selected human PDE isoforms, namely, PDE4 and PDE10 (for results see Table 3).
(§2) Tested and reference compounds were dissolved in dimethyl sulfoxide (DMSO) at a concentration of 10 mM and further diluted in assay buffer (10 mM Tris-HCl, 10 mM magnesium chloride and 0.05% Tween-20; pH 7.4). Inhibition of human PDE10A and 4B1 was measured using PDElight HTS cAMP phosphodiesterase assay kit (Lonza, Basel, Switzerland) according to manufacturer’s recommendations. Then, 10 ng of PDE10A and 5 ng of PDE4B1 (BPS Biosciences, San Diego, CA, USA) in appropriate buffer was incubated with reference and tested compound for 20 min. […] Then PDELight AMP Detection Reagent was added and incubated 10 min. All reactions were carried out at 37 °C in 96 white-walled, half-area-well plates (PerkinElmer). Luminescence was measured in a multifunction plate reader (POLARstar Omega, BMG Labtech, Ortenberg, Germany). The percentage of inhibition and IC50s were computed using GraphPad Prism Version 6.0 software.

human PDE4B1 = target: T2, human PDE4B1 (Homo sapiens, UniProt Q07343); assay: PDElight HTS cAMP phosphodiesterase assay, PDE4B1; type: biochemical
T2 construct: purchased BPS Biosciences
Protocol: as §1, §2

rat A1 (rA1) ARs = target: T3, rat A1 (rA1) ARs (Rattus norvegicus, UniProt P25099); assay: Radioligand binding [3H]CCPA, rat brain cortical membranes; details: read-out: rA1 [3H]CCPA Ki ± SEM
T3 construct: using rat brain cortical membrane preparations for A1; tissue Pel Freez; host or cells: rat brain cortex membranes
T3 sequence (P25099 1-326): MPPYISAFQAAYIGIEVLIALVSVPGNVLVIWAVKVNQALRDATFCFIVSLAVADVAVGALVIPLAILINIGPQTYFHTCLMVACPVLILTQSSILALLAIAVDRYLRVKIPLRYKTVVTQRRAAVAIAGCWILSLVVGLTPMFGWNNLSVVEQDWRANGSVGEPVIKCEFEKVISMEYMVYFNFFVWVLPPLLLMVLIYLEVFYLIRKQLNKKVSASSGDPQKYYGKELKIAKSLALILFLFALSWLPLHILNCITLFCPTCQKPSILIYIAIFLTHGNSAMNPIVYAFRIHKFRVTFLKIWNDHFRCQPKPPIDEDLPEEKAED
Protocol: The final compounds were tested in radioligand binding assays to evaluate their affinity for all four ARs subtypes (see Table 2). Rat brain cortical membrane preparations were used as a source of rat A1 (rA1) ARs, and rat brain striatal membrane preparations served as a source of rat A2A (rA2A) ARs. For A2B- and A3AR assays, membrane preparations of Chinese hamster ovary (CHO) cells recombinantly expressing either human A2B (hA2B) or human A3 (hA3) ARs were employed.
Adenosine receptor radioligand binding assays were performed as previously described using rat brain cortical membrane preparations for A1 and rat brain striatal membrane preparations for A2A AR assays. Frozen rat brains (unstripped) were obtained from Pel Freez, Rogers, AR, USA. For assays at human AR subtypes, cell membranes of CHO cells recombinantly expressing the respective receptor were used. The following compounds were employed as radioligands: A1: [^3H]2-chloro-N^6-cyclopentyladenosine ([^3H]CCPA); A2A: [^3H]3-(3-hydroxypropyl)-7-methyl-8-(m-methoxystyryl)-1-propargylxanthine ([^3H]MSX-2); A2B: [^3H]8-(4-(4-(4-chlorophenyl)piperazine-1-sulfonyl)phenyl)-1-propylxanthine ([^3H]PSB-603); A3: [^3H]phenyl-8-ethyl-4-methyl-(8R)-4,5,7,8-tetrahydro-1H-imidazo[2,1-i]purine-5-one ([^3H]PSB-11). Initially, a single high concentration of compound was tested (1 µM). For potent compounds, full concentration–inhibition curves were determined using six to ten different concentrations of test compound spanning three orders of magnitude. At least three independent experiments were performed. Data were analyzed using GraphPad PRISM program version 4.0 or higher (Graph Pad, San Diego, CA, USA).

human D2L receptor = human D2L receptor (Homo sapiens, UniProt P14416); assay: Radioligand binding [3H]-raclopride, HEK293 membranes; details: HEK293 cells, human D2; read-out: hD2 [3H]-Raclopride Ki ± SEM
Protocol: Rat brain cortical membranes were used as source of native rat D1 receptor protein, and human D2 receptor was recombinantly expressed in HEK293 cells.
HEK293 cells with stable expression of human D2L receptor were maintained at 37 °C in a humidified atmosphere with 5% CO2 and grown in Dulbecco’s Modifier Eagle Medium containing 10% dialyzed fetal bovine serum and 500 µg/mL G418 sulfate. For membrane preparation, cells were subcultured in 150 cm^2 flasks, grown to 90% confluence, washed twice with prewarmed to 37 °C phosphate buffered saline (PBS), and pelleted by centrifugation (200× g) in PBS containing 0.1 mM EDTA and 1 mM dithiothreitol. Prior to membrane preparation, pellets were stored at −80 °C.
Cell pellets were thawed and homogenized in 10 volumes of assay buffer using an Ultra Turrax tissue homogenizer and centrifuged twice at 35,000× g for 15 min at 4 °C. The incubation buffer consisted of 50 mM Tris-HCl, 1 mM EDTA, 4 mM MgCl2, 120 mM NaCl, 5 mM KCl, 1.5 mM CaCl2, and 0.1% ascorbate. Assay was incubated in a total volume of 200 µL in 96-well microtiter plate for 1 h at 37 °C. The process of equilibration was terminated by rapid filtration through Unifilter plate with a 96-well cell harvester and radioactivity retained on the filter was quantified on a Microbeta plate reader (PerkinElmer). For competition studies, the assay samples contained radioligand 2.5 nM [^3H]-raclopride (PerkinElmer). Non-specific binding was defined with 10 µM of haloperidol. Each compound was tested in triplicate at 7 concentrations (10^−10–10^−4 M). The inhibition constants (Ki) were calculated from the Cheng–Prusoff equation [66]. Results were expressed as means of at least two separate experiments.

T2 sequence (Q07343 whole entry): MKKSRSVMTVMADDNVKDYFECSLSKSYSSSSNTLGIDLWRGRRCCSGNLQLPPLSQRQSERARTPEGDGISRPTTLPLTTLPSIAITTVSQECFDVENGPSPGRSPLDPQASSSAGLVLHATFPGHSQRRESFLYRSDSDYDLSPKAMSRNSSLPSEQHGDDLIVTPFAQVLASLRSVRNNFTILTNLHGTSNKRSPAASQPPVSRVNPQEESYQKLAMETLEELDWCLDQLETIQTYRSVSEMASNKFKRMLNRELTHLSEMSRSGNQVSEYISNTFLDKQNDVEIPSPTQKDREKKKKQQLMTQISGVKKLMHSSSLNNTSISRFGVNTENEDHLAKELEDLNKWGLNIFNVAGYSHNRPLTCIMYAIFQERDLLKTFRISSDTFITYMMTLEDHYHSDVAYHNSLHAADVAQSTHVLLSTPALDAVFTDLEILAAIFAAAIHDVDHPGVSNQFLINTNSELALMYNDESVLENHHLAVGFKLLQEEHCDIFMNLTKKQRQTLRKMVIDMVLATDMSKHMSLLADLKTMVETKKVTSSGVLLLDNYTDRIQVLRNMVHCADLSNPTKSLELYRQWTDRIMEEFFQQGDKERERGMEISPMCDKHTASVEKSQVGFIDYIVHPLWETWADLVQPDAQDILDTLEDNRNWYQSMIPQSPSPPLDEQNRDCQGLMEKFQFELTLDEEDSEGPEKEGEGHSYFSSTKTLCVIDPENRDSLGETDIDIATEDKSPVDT
T1 sequence (Q9Y233 1-779 isoform Q9Y233-1): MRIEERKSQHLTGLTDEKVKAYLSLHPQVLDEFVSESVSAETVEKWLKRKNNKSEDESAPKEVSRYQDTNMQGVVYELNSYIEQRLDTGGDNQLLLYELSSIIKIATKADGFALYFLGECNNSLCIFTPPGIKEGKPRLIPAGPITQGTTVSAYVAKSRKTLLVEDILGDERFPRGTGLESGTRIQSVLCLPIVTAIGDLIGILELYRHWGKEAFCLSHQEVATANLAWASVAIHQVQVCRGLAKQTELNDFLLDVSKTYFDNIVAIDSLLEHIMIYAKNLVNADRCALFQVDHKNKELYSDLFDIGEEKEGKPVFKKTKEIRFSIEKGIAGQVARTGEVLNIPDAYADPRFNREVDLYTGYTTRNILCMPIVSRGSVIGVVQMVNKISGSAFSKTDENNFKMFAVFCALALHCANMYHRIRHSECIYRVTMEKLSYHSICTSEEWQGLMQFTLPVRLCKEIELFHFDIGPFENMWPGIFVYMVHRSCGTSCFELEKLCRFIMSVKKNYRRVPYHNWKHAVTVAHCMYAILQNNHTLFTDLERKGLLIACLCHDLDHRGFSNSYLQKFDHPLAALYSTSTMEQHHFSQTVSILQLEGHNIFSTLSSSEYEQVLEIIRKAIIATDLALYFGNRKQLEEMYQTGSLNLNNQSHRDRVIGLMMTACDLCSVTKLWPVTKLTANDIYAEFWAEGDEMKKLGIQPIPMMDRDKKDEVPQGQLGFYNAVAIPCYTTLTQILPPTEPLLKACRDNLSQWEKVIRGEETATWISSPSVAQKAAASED
human D2L receptor, sequence (P14416 whole entry): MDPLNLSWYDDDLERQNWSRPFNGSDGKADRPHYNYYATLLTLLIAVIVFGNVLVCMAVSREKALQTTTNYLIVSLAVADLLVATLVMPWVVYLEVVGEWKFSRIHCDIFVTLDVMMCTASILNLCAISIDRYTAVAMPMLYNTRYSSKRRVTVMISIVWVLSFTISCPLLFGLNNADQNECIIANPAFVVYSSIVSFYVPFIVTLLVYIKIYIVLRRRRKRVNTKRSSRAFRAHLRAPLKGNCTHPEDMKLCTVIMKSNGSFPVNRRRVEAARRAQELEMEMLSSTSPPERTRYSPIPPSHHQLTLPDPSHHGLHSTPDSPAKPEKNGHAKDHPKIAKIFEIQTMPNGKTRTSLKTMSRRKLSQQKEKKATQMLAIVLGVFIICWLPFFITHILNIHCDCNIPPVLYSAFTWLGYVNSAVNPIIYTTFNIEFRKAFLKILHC

- inhibition at 10 µM (human PDE10A1; read-out: PDE 10A1 % Inhibition ± SEM at 10 µM): 25%
- IC50 (human PDE10A1; read-out: PDE 10A1 IC50 ± SEM): > 10 µM
- inhibition at 10 µM (human PDE4B1; read-out: PDE 4B1 % Inhibition ± SEM at 10 µM): 24%
- IC50 (human PDE4B1; read-out: PDE 4B1 IC50 ± SEM): > 10 µM
- Ki (rat A1 (rA1) ARs): 0.053 ± 0.008 µM
- Ki (human D2L receptor): 16.6 ± 2.3 µM
SMILES: CCCCn1c(=O)c2c(nc3n2CCCN3CCc2ccc(O)c(O)c2)n(CCCC)c1=O [Compound 22, 1,3-Dibutyl-9-(3,4-dihydroxyphenethyl)-6,7,8,9-tetrahydropyrimido[2,1-f]purine-2,4(1H,3H)-dione]
